Results published in ChEMBL document CHEMBL5052852, “Substituted hydantoinamides as adamts7 antagonists” (2021).

Experiments:
[1] = Inhibition of recombinant rat/human ADAMTS12 hybrid using HiLyteFluor-488 DELSSMVLELRGLRT-K(QXL520)-E-NH2 as substrate incubated for 120 mins and measured by FRET assay
[2] = Inhibition of recombinant rat/human ADAMTS7 hybrid using HiLyteFluor-488 DELSSMVLELRGLRT-K(QXL520)-E-NH2 as substrate incubated for 120 mins and measured by FRET assay

Row | Structure (SMILES) | IC50 [1] [µM] | IC50 [2] [µM]
1 | O=C1NC(=O)C(CNC(=O)c2cnn(-c3ccc(Cl)c(F)c3)n2)(C2CCC2)N1 (configuration not stated) | 0.975 | 0.006
2 | O=C1NC(=O)[C@](CNC(=O)c2cnn(-c3ccccn3)n2)(C2CC2)N1 | 7.65 | 0.098
3 | O=C1NC(=O)C(CNC(=O)c2cnn(-c3ccc(F)cc3F)n2)(c2nccs2)N1 (stereo in doubt) | 5.5 | 0.078
4 | O=C1NC(=O)[C@](CNC(=O)c2cnn(-c3ccccc3F)n2)(C2CC2)N1 | 7.6 | 0.18
5 | CC(C)C1(CNC(=O)c2cnn(-c3cc(F)c(F)c(F)c3)n2)NC(=O)NC1=O (racemic) | 6 | 0.052
6 | O=C1NC(=O)C(CNC(=O)c2cnn(-c3ccc(F)cc3)n2)(C2CCOCC2)N1 (racemic) | 9.3 | 0.26
7 | O=C1NC(=O)C(CNC(=O)c2cnn(-c3ccc(F)cc3)n2)(C2CCCC2)N1 (stereo in doubt) | 5.9 | 0.033
8 | CC(C)(C)C1(CNC(=O)c2cnc(-c3ccccc3)o2)NC(=O)NC1=O (racemic) | 50 | 0.48
9 | O=C1NC(=O)C(CNC(=O)c2cnn(-c3ccc(F)cc3)n2)(c2ccnn2C(F)F)N1 (racemic) | 2.4 | 0.029
10 | O=C1NC(=O)[C@](CNC(=O)c2cnn(-c3ccc(Br)cc3)n2)(C2CC2)N1 | 1.4 | 0.058
11 | Cc1scnc1C1(CNC(=O)c2cnn(-c3ccc(F)cc3)n2)NC(=O)NC1=O (racemic) | 0.68 | 0.008
12 | CC(C)C1(CNC(=O)c2cnn(-c3ccc(F)cc3)n2)NC(=O)NC1=O (racemic) | 16 | 0.042
13 | O=C1NC(=O)C(CNC(=O)c2cnn(-c3ccc(Cl)c(F)c3)n2)(c2nccs2)N1 (stereo in doubt) | 0.4 | 0.005
14 | O=C1NC(=O)[C@](CNC(=O)c2cnn(-c3ccc(Cl)cc3F)n2)(C2CC2)N1 | 1 | 0.06
15 | O=C1NC(=O)C(CNC(=O)c2cnn(-c3ccc(F)cc3)n2)(c2ncccc2C(F)(F)F)N1 (racemic) | 15 | 0.059
16 | CC(C)C1(CNC(=O)c2cnn(-c3cc(F)c(F)c(F)c3)n2)NC(=O)NC1=O (stereo in doubt) | 3.3 | 0.02
